Data reported in patent US20230264009A1, “DISINFECTING CAP KIT FOR LUER ACCESS DEVICES” (SterileCare Inc., priority 2022, published 2023).

What was measured:
S. epidermidis SK9 [1] = assay: MIC, micro broth dilution; format: cell-based, Staphylococcus epidermidis; details: alone, 24 h
Method: (§1) An assay was made using a minimum inhibitory concentration (MIC) and minimum bactericidal concentration (MBC) and minimum fungicidal concentration (MFC) determination. The MIC was determined by the micro broth dilution method in 96-well plates. Serial two-fold dilutions of tetrasodium EDTA (from 2% to 0.015%), ethanol (from 50% to 0.1%) and chlorhexidine HCl (from 100 µg/mL to 0.025 µg/mL) were prepared in MH broth with a final volume of 90 µL per well. A 10 µL containing 1 × 10^5 bacterial cells or 2 × 10^3 fungal cells were added to each well. The inoculated plates were covered with a lid, sealed with Parafilm, and incubated for 24 h at 37° C. with slight rocking on a tilting platform shaker. After incubation, the optical density at 600 nm (OD 600 ) of the cultures in each well was measured using an xMark™ Microplate Absorbance Spectrophotometer (Bio-Rad). […] MBCs and MFCs were determined by transferring 100 µL from each well with no apparent growth onto appropriate agar plates, followed by incubation for 24 h at 37° C.

[2] = test system: 48-h-old biofilms of bacterial and fungal strains; assay: MBEC Assay, 24 h exposure (summary); format: cell-based; details: following 24 h of treatment
Method: A biofilm cultivation cell composition was provided. This fifth composition was created using an MBEC Assay® biofilm inoculator, consisting of a polystyrene lid with 96 downward-protruding pegs and a corresponding base used to grow biofilms. A standardized inoculum was diluted in an appropriate biofilm growth medium to achieve a viable cell count of 1.5 × 10^6 CFU/mL of bacterial cells or […] CFU/mL of fungal cells. Then, 150 µL of this inoculum was transferred into each appropriate well, and the peg lids were inserted into the microtiter plates. The plates were sealed with Parafilm and were incubated at optimum temperature for 48 h with slight rocking for bacteria and shaking at 200 rpm for fungal strains. After incubation, the peg lid was removed from the base and rinsed twice with sterile phosphate-buffered saline (PBS) for 2 min to remove loosely attached non-sessile cells. Before the antimicrobial challenge, the pegs in column 1 (n = 8) were considered the biofilm growth control; these pegs were removed from the lids, placed into 200 µL of recovery medium, and analyzed for starting biofilm cell numbers as described below. […] After the antimicrobial challenge, the pegs were rinsed twice with sterile PBS for 2 min and placed into a new 96-well plate containing 200 µL of recovery medium. The recovery plates were sealed with Parafilm, and biofilm cells were dislodged from the pegs by sonication for 30 min with a Branson 3510 bath sonicator. The biofilm cells in the recovery medium were serially diluted, and a drop dilution assay was performed to enumerate the viable cells. MBEC values were determined as the minimum concentration of antimicrobials that yielded a viable cell count at or lower than the 125 CFU/mL detection limit.

E. coli SK2 [3] = assay: MBC/MFC determination; format: cell-based, Escherichia coli; details: alone
Method: as §1

[4] = test system: Staphylococcus epidermidis SK9 biofilm; assay: FBEC index, checkerboard dilution on biofilms; format: cell-based; details: S. epidermidis SK9 biofilm
Method: (§3) In step (4), microtiter plates are incubated at 37° C. for 24 h. then (6), after incubation, the bacterial and fungal cells were dislodged from the pegs into the recovery medium described above.
(§4) Three 10-µL aliquots, for a total of 30 µL from each well of recovery medium, were spotted on MH agar plates and incubated for 24 h at 37° C. […] The FBEC determination is a modification of the FICI.

S. epidermidis SK9 [5] = assay: MBC/MFC determination; format: cell-based, Staphylococcus epidermidis; details: alone
Method: as §1

[6] = test system: Staphylococcus epidermidis ON170; assay: Checkerboard titration, FMCI; format: cell-based; details: S. epidermidis ON170
Method: as §1
(§2) A fourth composition and solution included tetrasodium EDTA with ethanol or chlorhexidine HCl. This fourth composition and solution were created using checkerboard titration methods using micro broth dilution in 96-well microtiter plates. The concentrations of antimicrobials used were based on previously determined MIC values. Briefly, 200 µL of two-fold dilutions of tetrasodium EDTA and ethanol or chlorhexidine HCl were prepared in MH or MH II broth with standardized cell suspension. […] Microtiter plates were incubated at 37° C. for 24 h, and the results were analyzed. Each test was performed in duplicate and included a growth control without adding any antimicrobials.

Serratia marcescens SK2 = assay: Checkerboard titration, FMCI; format: cell-based; details: S. marcescens SK2
Method: as §1, §2

Candida albicans SK4b = assay: Checkerboard titration, FMCI; format: cell-based; details: C. albicans SK4b
Method: as §1, §2

[7] = test system: Stenotrophomonas maltophilia ON17; assay: Checkerboard titration, FMCI; format: cell-based; details: S. maltophilia ON17
Method: as §1, §2

[8] = test system: Staphylococcus aureus ON89; assay: Checkerboard titration, FMCI; format: cell-based; details: S. aureus ON89
Method: as §1, §2

[9] = test system: Pseudomonas aeruginosa SK1; assay: Checkerboard titration, FMCI; format: cell-based; details: P. aeruginosa SK1
Method: as §1, §2

Proteus mirabilis ON153 = assay: Checkerboard titration, FMCI; format: cell-based; details: P. mirabilis ON153
Method: as §1, §2

Escherichia coli ON29 = assay: Checkerboard titration, FMCI; format: cell-based; details: E. coli ON29
Method: as §1, §2

[10] = test system: Escherichia coli SK2 biofilm; assay: FBEC index, checkerboard dilution on biofilms; format: cell-based; details: E. coli SK2 biofilm
Method: as §3, §4

[11] = test system: Candida albicans SK4b biofilm; assay: FBEC index, checkerboard dilution on biofilms; format: cell-based; details: C. albicans SK4b biofilm
Method: as §3, §4

E. coli SK2 [12] = assay: Checkerboard titration, FMCI; format: cell-based, Escherichia coli
Method: as §1, §2

C. albicans ON47 [13] = assay: Checkerboard titration, FMCI; format: cell-based, Candida albicans
Method: as §1, §2

C. albicans ON47 [14] = assay: Checkerboard titration, FICI; format: cell-based, Candida albicans
Method: as §2

MRSA ON184 [15] = assay: MIC, micro broth dilution; format: cell-based, Staphylococcus aureus; details: alone, 24 h
Method: as §1

MRSA ON184 [16] = assay: Checkerboard titration, FICI; format: cell-based, Staphylococcus aureus
Method: as §2

[17] = tetrasodium EDTA + chlorhexidine HCl

Structure (SMILES): O=C([O-])CN(CCN(CC(=O)[O-])CC(=O)[O-])CC(=O)[O-].[Na+].[Na+].[Na+].[Na+] [EDTA, tetrasodium EDTA]
- MIC (S. epidermidis SK9 [1]): 0.063 % w/v
- Concentration alone able to eradicate all established biofilms [2]: 4%
- MBC/MFC (E. coli SK2 [3]): 0.5 % w/v
- FBEC (concentration in combination) [4, 17]: 0.125 % w/v
- FBEC (concentration in combination) ([4]; tetrasodium EDTA + ethanol): 0.031 % w/v
- MBC/MFC (S. epidermidis SK9 [5]): 0.5 % w/v
- Concentration in combination giving FMCI [6, 17]: 0.25 % w/v
- Concentration in combination giving FMCI ([6]; tetrasodium EDTA + ethanol): 0.031 % w/v
- Concentration in combination giving FMCI (Serratia marcescens SK2; [17]): 0.125 % w/v
- Concentration in combination giving FMCI (Serratia marcescens SK2; tetrasodium EDTA + ethanol): 0.25 % w/v
- Concentration in combination giving FMCI (Candida albicans SK4b; [17]): 0.125 % w/v
- Concentration in combination giving FMCI (Candida albicans SK4b; tetrasodium EDTA + ethanol): 0.25 % w/v
- Concentration in combination giving FMCI [7, 17]: 0.031 % w/v
- Concentration in combination giving FMCI ([7]; tetrasodium EDTA + ethanol): 0.125 % w/v
- Concentration in combination giving FMCI [8, 17]: 0.008 % w/v
- Concentration in combination giving FMCI ([8]; tetrasodium EDTA + ethanol): 0.25 % w/v
- Concentration in combination giving FMCI [9, 17]: 0.031 % w/v
- Concentration in combination giving FMCI ([9]; tetrasodium EDTA + ethanol): 0.031 % w/v
- Concentration in combination giving FMCI (Proteus mirabilis ON153; [17]): 0.125 % w/v
- Concentration in combination giving FMCI (Proteus mirabilis ON153; tetrasodium EDTA + ethanol): 0.063 % w/v
- Concentration in combination giving FMCI (Escherichia coli ON29; [17]): 0.008 % w/v
- Concentration in combination giving FMCI (Escherichia coli ON29; tetrasodium EDTA + ethanol): 0.25 % w/v
- FBEC (concentration in combination) [10, 17]: 0.031 % w/v
- FBEC (concentration in combination) ([10]; tetrasodium EDTA + ethanol): 0.125 % w/v
- FBEC (concentration in combination) [11, 17]: 0.063 % w/v
- FBEC (concentration in combination) ([11]; tetrasodium EDTA + ethanol): 0.125 % w/v
- Concentration in combination giving FMCI (E. coli SK2 [12]; [17]): 0.015 % w/v
- Concentration in combination giving FMCI (E. coli SK2 [12]; tetrasodium EDTA + ethanol): 0.25 % w/v
- Concentration in combination giving FMCI (C. albicans ON47 [13]; [17]): 0.031 % w/v
- Concentration in combination giving FMCI (C. albicans ON47 [13]; tetrasodium EDTA + ethanol): 0.25 % w/v
- Concentration in combination giving FICI (C. albicans ON47 [14]; [17]): 0.125 % w/v
- Concentration in combination giving FICI (C. albicans ON47 [14]; tetrasodium EDTA + ethanol): 0.25 % w/v
- MIC (MRSA ON184 [15]): 0.063 % w/v
- Concentration in combination giving FICI (MRSA ON184 [16]; [17]): 0.008 % w/v
- Concentration in combination giving FICI (MRSA ON184 [16]; tetrasodium EDTA + ethanol): 0.015 % w/v
